Results from US20230293453A1, “SPERMIDINE AND USES THEREOF” (TLL THE LONGEVITY LABS GMBH, priority 2020, published 2023).

Assays:
[1] = tested on: obese rats; experiment: Intraperitoneal glucose tolerance test, spermidine alone in obese rats; assay type: in vivo, rat; conditions: 10 weeks of spermidine alone, 1 g/kg glucose i.p., 12-h fasted, age 18 weeks, compared with control obese rats, FIG. 8
Method: Intraperitoneal glucose tolerance test was performed at 6 AM from 12-h fasted rats. During the experiment, rats were singly housed in empty cages without food, water or bed-ding. The basal fasting blood glucose level was determined by collecting a drop of blood from the tail vein. Blood droplet was applied onto a test strip that was inserted into a glucose analyzer (glucometer, Accu-Chek Performa). Rats were then injected intraperitoneally with 1 g of glucose per kg fasting body mass, and blood glucose levels were determined 15, 30, 60, 90 and 120 min after glucose. The sampling and measurement were conducted at the age of 18 weeks.

[2] = tested on: ZSF1 obese rats; experiment: Fasting insulin determination (ELISA), cardiometabolic syndrome model; assay type: in vivo, rat; conditions: 10 weeks of treatment (8 weeks vs. 18 weeks of age), plasma, 6-h fasted, FIG. 6b
Method: (§1) Cardiometabolic syndrome model: ZSF1 lean and obese rats of both genders were purchased at the age of 5 weeks from the Charles River Laboratories (Kingston, USA). Eight-week-old ZSF1 obese rats were divided into three weight-matched and equally sized/gender-balanced groups: group 1 received regular drinking water (non-treated control), group 2 received regular drinking water supplemented with 40 mM nicotinamide (i.e. 0.5% w/v), and group 3 was administered the combination of 40 mM nicotinamide and 3 mM spermidine (of synthetical origin) in drinking water for a period of 14 weeks. Water as well as food intake were monitored regularly. Age-matched untreated ZSF1 obese and lean rats served as controls.
Fasted blood samples were collected from the clavicular vena plexus/jugular vein of 6-h fasted (6 AM-12 AM) and lightly anesthetized rats (2% isoflurane and 98% O2), whose body temperature was maintained at 37° C. using a temperature-controlled heating platform. Fasting insulin was measured in plasma using ultrasensitive rat ELISA kits (Crystal Chem) according to the manufacturer's protocol. The sampling and measurement was conducted at the age of 8 weeks (baseline) and at the age of 18 weeks. The fold-change was calculated by dividing the values form 18-weeks old animals and 8-weeks old animals.

[3] = tested on: ZSF1 obese rats; experiment: Fasting glucose determination, cardiometabolic syndrome model; assay type: in vivo, rat; conditions: 10 weeks of treatment (8 weeks vs. 18 weeks of age), tail vein blood, FIG. 6a
Method: as §1
The basal fasting blood glucose level was determined by collecting a drop of blood from the tail vein. Blood droplet was applied to a test strip that was inserted into a glucose analyzer (glucometer, Accu-Chek Performa). The sampling and measurement was conducted at the age of 8 weeks (baseline) and at the age of 18 weeks. The fold-change was calculated by dividing the values form 18-weeks old animals and 8-weeks old animals.

[4] = tested on: Dahl salt-sensitive male rats; experiment: Cardiac hypertrophy by gravimetry, salt-induced hypertensive heart disease model; assay type: in vivo, rat; conditions: Dahl rats on high-salt diet; 40 mM nicotinamide in drinking water for 12 weeks; FIG. 3b
Excerpt: Salt-induced hypertensive heart disease model: Dahl salt-sensitive male rats (n=24) were purchased at the age of 4 weeks from the Charles River Laboratories (Kingston, USA). Eight rats were fed the low-salt diet containing 0.3% NaCl (AIN-76A, Research Diets, Inc. USA) throughout the experiment and served as a healthy control group. Low-salt diet was fed also to the remaining 16 Dahl rats until the age of 7 weeks, when the diet was switched to a high-salt diet (AIN-76A with 8% NaCl, Research Diets, Inc. USA), and the rats were divided into two weight-matched cohorts each consisting of two equally sized groups (n=8 animals per group); group 1 received regular drinking water (non-treated control), while group 2 received regular drinking water supplemented with 40 mM nicotinamide (i.e. 0.5% w/v) for a period of 12 weeks. The heart was harvested and weighed, obtaining the heart weight (HW). For normalisation, the weight was subsequently divided by the length of the left tibia bone (TL), resulting in the ratio HW/TL.

[5] = tested on: ZSF1 obese rats; experiment: Diastolic function by echocardiography, cardiometabolic syndrome model; assay type: in vivo, rat; conditions: 40 mM nicotinamide, with or without 3 mM spermidine, in drinking water for 14 weeks, FIG. 2c
Method: Cardiometabolic syndrome model: ZSF1 lean and obese rats of both genders were purchased at the age of 5 weeks from the Charles River Laboratories (Kingston, USA). Eight-week-old ZSF1 obese rats were divided into three weight-matched and equally sized/gender-balanced groups: group 1 received regular drinking water (non-treated control), group 2 received regular drinking water supplemented with 40 mM nicotinamide (i.e. 0.5% w/v), and group 3 was administered the combination of 40 mM nicotinamide and 3 mM spermidine (of synthetical origin) in drinking water for a period of 14 weeks. Water as well as food intake were monitored regularly. Age-matched untreated ZSF1 obese and lean rats served as controls. Transthoracic echocardiography was performed using high resolution micro-imaging system equipped with a 24- and 55-MHz linear array transducers for rats and mice, respectively, as described (Eisenberg et al. (2016), Nat Med 22(12): 1428-1438). […] Diastolic function was assessed using pulsed-wave and tissue Doppler imaging to determine the ratio between peak early-filling velocity of transmitral flow (E) and the corresponding mitral valve annulus velocity (e′), respectively. This measurement was conducted according to the method of item 2.1.1, with the exception that the rats were lightly anesthetized with 1-2% isoflurane and 98-99% 02.

[6] = tested on: ZSF1 obese rats; experiment: Myocardial nicotinamide and NAD+ levels by mass spectrometry, cardiometabolic syndrome model; assay type: in vivo, rat; conditions: 40 mM nicotinamide, with or without 3 mM spermidine, in drinking water for 14 weeks
Method: Cardiometabolic syndrome model: ZSF1 lean and obese rats of both genders were purchased at the age of 5 weeks from the Charles River Laboratories (Kingston, USA). Eight-week-old ZSF1 obese rats were divided into three weight-matched and equally sized/gender-balanced groups: group 1 received regular drinking water (non-treated control), group 2 received regular drinking water supplemented with 40 mM nicotinamide (i.e. 0.5% w/v), and group 3 was administered the combination of 40 mM nicotinamide and 3 mM spermidine (of synthetical origin) in drinking water for a period of 14 weeks. Water as well as food intake were monitored regularly. Age-matched untreated ZSF1 obese and lean rats served as controls. The mass spectrometric metabolomic analysis of nicotinamide and NAD^+ in rat myocardium was performed as described previously ([…]., et al. Aging (Albany NY) 11(2019):4783-4800). About 30 mg of tissue was weighed and solubilized in tubes with ceramic beads using 1 ml of cold lysate buffer (methanol:water ratio was 9:1; at -20° C.). Tissue samples were then homogenized three times for 20 s at 5.500 rpm using a Precellys 24 tissue homogenizer followed by centrifugation for 10 min at 15.000 g and 4° C. […] Peak detection and integration of the analytes were performed using the Agilent Mass Hunter quantitative software (B.07.01). […]

[7] = tested on: ZSF1 obese rats; experiment: Exercise capacity by exercise calorimetry, cardiometabolic syndrome model; assay type: in vivo, rat; conditions: 40 mM nicotinamide, with or without 3 mM spermidine, in drinking water for 14 weeks, treadmill peak effort, FIG. 4b
Method: Eight-week-old ZSF1 obese rats were divided into three weight-matched and equally sized/gender-balanced groups: group 1 received regular drinking water (non-treated control), group 2 received regular drinking water supplemented with 40 mM nicotinamide (i.e. 0.5% w/v), and group 3 was administered the combination of 40 mM nicotinamide and 3 mM spermidine (of synthetical origin) in drinking water for a period of 14 weeks. Water as well as food intake were monitored regularly. Age-matched untreated ZSF1 obese and lean rats served as controls. Rats were subjected to peak effort on a closed-chamber treadmill at an inclination of 10° coupled to a gas analyzer (CaloTreadmill). […] The exercise session ended at the maximal fatigue, which was defined as the lack of ability to maintain running speed despite being in contact with the electric shock for more than 5 seconds. Calorimetric parameters, such as relative oxygen consumption (ΔVO2) and carbon dioxide production (ΔVCO2) were continuously measured at 0.2 Hz intervals during treadmill running. Maximal oxygen consumption (VO2max) and run distance were determined at the point at which oxygen uptake reached a plateau during exhaustive workout/exercise.

[8] = tested on: Aged C57BL/6J male mice; experiment: Diastolic function by echocardiography, aging model; assay type: in vivo, mouse; conditions: 24 mM nicotinamide, with or without 3 mM spermidine, in drinking water for 4 months, FIG. 2a
Method: Aging model: Aged C57BL/6J male mice were purchased from the Charles River Laboratories (Sulzfeld, Germany) at the age of 18 months and fed standard chow. Supplementation of 24 mM nicotinamide (i.e. 0.3% w/v, changed two times per week) and of spermidine (i.e. 3 mM final concentration at pH 7.2, changed two times per week) in the regular drinking water was conducted at 20 months of age for a period of 4 months. […] Transthoracic echocardiography was performed using high resolution micro-imaging system equipped with a 24- and 55-MHz linear array transducers for rats and mice, respectively, as described (Eisenberg et al. (2016), Nat Med 22(12): 1428-1438). Briefly, lightly anesthetized mice (0.5% isoflurane and 99.5% 02) were placed in the supine position on a temperature-controlled heating platform to maintain their body temperature at 37° C. Diastolic function was assessed using pulsed-wave and tissue Doppler imaging to determine the ratio between peak early-filling velocity of transmitral flow (E) and the corresponding mitral valve annulus velocity (e′), respectively.

[9] = tested on: Aged C57BL/6J male mice; experiment: Cardiac hypertrophy by gravimetry, aging model; assay type: in vivo, mouse; conditions: 24 mM nicotinamide, with or without 3 mM spermidine, in drinking water for 4 months, FIG. 3a
Method: Aging model: Aged C57BL/6J male mice were purchased from the Charles River Laboratories (Sulzfeld, Germany) at the age of 18 months and fed standard chow. Supplementation of 24 mM nicotinamide (i.e. 0.3% w/v, changed two times per week) and of spermidine (i.e. 3 mM final concentration at pH 7.2, changed two times per week) in the regular drinking water was conducted at 20 months of age for a period of 4 months. […] The heart was harvested and weighed, obtaining the heart weight (HW). For normalisation, the weight was subsequently divided by the length of the left tibia bone (TL), resulting in the ratio HW/TL.

[10] = tested on: Dahl salt-sensitive male rats; experiment: Diastolic function by hemodynamic pressure-volume measurement, salt-induced hypertensive heart disease model; assay type: in vivo, rat; conditions: Dahl rats on high-salt diet; 40 mM nicotinamide in drinking water for 12 weeks; FIG. 2b
Excerpt: Salt-induced hypertensive heart disease model: Dahl salt-sensitive male rats (n=24) were purchased at the age of 4 weeks from the Charles River Laboratories (Kingston, USA). Eight rats were fed the low-salt diet containing 0.3% NaCl (AIN-76A, Research Diets, Inc. USA) throughout the experiment and served as a healthy control group. Low-salt diet was fed also to the remaining 16 Dahl rats until the age of 7 weeks, when the diet was switched to a high-salt diet (AIN-76A with 8% NaCl, Research Diets, Inc. USA), and the rats were divided into two weight-matched cohorts each consisting of two equally sized groups (n=8 animals per group); group 1 received regular drinking water (non-treated control), while group 2 received regular drinking water supplemented with 40 mM nicotinamide (i.e. 0.5% w/v) for a period of 12 weeks. […] The heart rate was monitored by an electrocardiogram (Animal Bio Amp, FE136) and kept at 350-400 bpm throughout the experiment. […] Signals were continuously acquired (MPVS PL3508 PowerLab 8/35), digitized at 2 kHz (ML880 PowerLab 16/30), and analyzed offline (LabChart 8 Pro). After a stabilization period of 10 min, left ventricular end-diastolic pressure (EDP), a baseline parameter of diastolic function, was measured and aver-aged from ten consecutive beats, with ventilation suspended at end-expiration. […]

[11] = tested on: Dahl salt-sensitive male rats; experiment: Lung congestion by gravimetry, salt-induced hypertensive heart disease model; assay type: in vivo, rat; conditions: Dahl rats on high-salt diet; 40 mM nicotinamide in drinking water for 12 weeks; FIG. 5a
Excerpt: Salt-induced hypertensive heart disease model: Dahl salt-sensitive male rats (n=24) were purchased at the age of 4 weeks from the Charles River Laboratories (Kingston, USA). Eight rats were fed the low-salt diet containing 0.3% NaCl (AIN-76A, Research Diets, Inc. USA) throughout the experiment and served as a healthy control group. Low-salt diet was fed also to the remaining 16 Dahl rats until the age of 7 weeks, when the diet was switched to a high-salt diet (AIN-76A with 8% NaCl, Research Diets, Inc. USA), and the rats were divided into two weight-matched […] groups (n=8 animals per group); group 1 received regular drinking water (non-treated control), while group 2 received regular drinking water supplemented with 40 mM nicotinamide (i.e. 0.5% w/v) for a period of 12 weeks.
(§2) The lung was harvested and weighed, obtaining the lung weight (LW). For normalisation, the weight was subsequently divided by the length of the left tibia bone (TL), resulting in the ratio LW/TL.

[12] = tested on: ZSF1 obese rats; experiment: Lung congestion by gravimetry, cardiometabolic syndrome model; assay type: in vivo, rat; conditions: 40 mM nicotinamide, with or without 3 mM spermidine, in drinking water for 14 weeks, FIG. 5b
Method: as §1, §2
This measurement was conducted according to the method of item 2.4.1.

[13] = tested on: ZSF1 obese rats; experiment: Cardiac hypertrophy by gravimetry, cardiometabolic syndrome model; assay type: in vivo, rat; conditions: 40 mM nicotinamide, with or without 3 mM spermidine, in drinking water for 14 weeks, FIG. 3c
Method: Cardiometabolic syndrome model: ZSF1 lean and obese rats of both genders were purchased at the age of 5 weeks from the Charles River Laboratories (Kingston, USA). Eight-week-old ZSF1 obese rats were divided into three weight-matched and equally sized/gender-balanced groups: group 1 received regular drinking water (non-treated control), group 2 received regular drinking water supplemented with 40 mM nicotinamide (i.e. 0.5% w/v), and group 3 was administered the combination of 40 mM nicotinamide and 3 mM spermidine (of synthetical origin) in drinking water for a period of 14 weeks. Water as well as food intake were monitored regularly. Age-matched untreated ZSF1 obese and lean rats served as controls. The heart was harvested and weighed, obtaining the heart weight (HW). For normalisation, the weight was subsequently divided by the length of the left tibia bone (TL), resulting in the ratio HW/TL.

[14] = literature: Gale et al. 2004, Chen et al. 2015, Poyan et al. 2018; cited from earlier work
[15] = tested on: Dahl salt-sensitive male rats; experiment: Exercise capacity by exercise calorimetry, salt-induced hypertensive heart disease model; assay type: in vivo, rat; conditions: Dahl rats on high-salt diet; 40 mM nicotinamide in drinking water for 12 weeks; treadmill peak effort; FIG. 4a
Excerpt: Salt-induced hypertensive heart disease model: Dahl salt-sensitive male rats (n=24) were purchased at the age of 4 weeks from the Charles River Laboratories (Kingston, USA). Eight rats were fed the low-salt diet containing 0.3% NaCl (AIN-76A, Research Diets, Inc. USA) throughout the experiment and served as a healthy control group. Low-salt diet was fed also to the remaining 16 Dahl rats until the age of 7 weeks, when the diet was switched to a high-salt diet (AIN-76A with 8% NaCl, Research Diets, Inc. USA), and the rats were divided into two weight-matched cohorts each consisting of two equally sized groups (n=8 animals per group); group 1 received regular drinking water (non-treated control), while group 2 received regular drinking water supplemented with 40 mM nicotinamide (i.e. 0.5% w/v) for a period of 12 weeks. Rats were subjected to peak effort on a closed-chamber treadmill at an inclination of 10° coupled to a gas analyzer (CaloTreadmill). […] Calorimetric parameters, such as relative oxygen consumption (ΔVO2) and carbon dioxide production (ΔVCO2) were continuously measured at 0.2 Hz intervals during treadmill running. Maximal oxygen consumption (VO2max) and run distance were determined at the point at which oxygen uptake reached a plateau during exhaustive workout/exercise.

| Compound | glucose clearance curve (also as AUC) [1] | fasting insulin level (fold-change 18 weeks vs 8 weeks) [2] | fasting glucose level (fold-change 18 weeks vs 8 weeks) [3] | heart weight-to-tibia length ratio (HW/TL), marker of cardiac hypertrophy [4] | quotient E/e' (measure of diastolic dysfunction) [5] | myocardial level of nicotinamide (NAM) ([6]; FIG. 1 left) | myocardial level of nicotinamide adenine dinucleotide+ (NAD+) ([6]; FIG. 1 right) | maximal oxygen consumption (VO2max) [7] | run distance [7] | quotient E/e' (measure of diastolic dysfunction) [8] | heart weight-to-tibia length ratio (HW/TL), marker of cardiac hypertrophy [9] | left ventricular end-diastolic pressure (EDP), marker for diastolic dysfunction [10] | ratio LW/TL (lung weight to tibia length), measure of lung congestion [11] | ratio LW/TL (lung weight to tibia length), measure of lung congestion [12] | heart weight-to-tibia length ratio (HW/TL), marker of cardiac hypertrophy [13] | tolerability at high doses during chronical administration [14] | maximal oxygen consumption (VO2max) [15] | run distance [15] |
| --- | --- | --- | --- | --- | --- | --- | --- | --- | --- | --- | --- | --- | --- | --- | --- | --- | --- | --- |
| NCCCCNCCCN [spermidine] | did not change | no significant influence | no significant influence |  |  |  |  |  |  |  |  |  |  |  |  |  |  |  |
| NC(=O)c1cccnc1 [nicotinamide] |  | increased | increased | reduced to levels similar to the control | reduced | significantly increased | significantly increased | increased | increased | reduced | reduced | reduced | decrease | compensated this effect | reduced | well-tolerated | increased | increased |
